From ChEMBL document CHEMBL1201862, “PubChem BioAssay data set” (2004)
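Values below derive from 48-hour exposures of cells grown in 96-well plates, with endpoints linearly interpolated between the two concentrations bracketing the appropriate inhibition level. Here, GI50 denotes the concentration required for 50% inhibition of growth.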 Activity calls are given as the source filed them. Rule as the data show it: active = GI50 up to about 1.1 µM and inactive = higher.

Experiments:
Experiment in all cases: growth of human tumour cells (NCI), 48 h
HOP-92 = system: HOP-92
KM12 = system: KM12
HOP-62 = system: HOP-62
LOX IMVI = system: LOX IMVI
RXF 393 = system: RXF 393
SN12C = system: SN12C
NCI-H23 = system: NCI-H23
SK-MEL-28 = system: SK-MEL-28
Malme-3M = system: Malme-3M
MOLT-4 = system: MOLT-4
HCC 2998 = system: HCC 2998
ACHN = system: ACHN
NCI-H226 = system: NCI-H226
OVCAR-4 = system: OVCAR-4
786-0 = system: 786-0
TK-10 = system: TK-10
OVCAR-8 = system: OVCAR-8
UACC-62 = system: UACC-62
M14 = system: M14
OVCAR-5 = system: OVCAR-5

Measured: GI50

O=c1c2cc(Br)ccc2[nH]c(=S)n1-c1ccc(Br)cc1
inactive: HOP-92 23 µM | KM12 > 100 µM | HOP-62 67.6 µM | LOX IMVI 70.6 µM | RXF 393 > 100 µM | SN12C 75 µM | NCI-H23 > 100 µM | SK-MEL-28 > 100 µM | Malme-3M > 100 µM | MOLT-4 > 100 µM | HCC 2998 > 100 µM | ACHN > 100 µM | NCI-H226 > 100 µM | OVCAR-4 76.4 µM | 786-0 40.6 µM | TK-10 > 100 µM | OVCAR-8 31 µM

Clc1ccccc1-c1nc(-c2ccncc2)no1 [PIFEXOLE]
inactive: HOP-92 > 100 µM | UACC-62 73.6 µM | KM12 > 100 µM | HOP-62 > 100 µM | RXF 393 29.3 µM | SN12C 38.2 µM | NCI-H23 49.4 µM | SK-MEL-28 > 100 µM | Malme-3M 75.3 µM | MOLT-4 26.8 µM | HCC 2998 25.1 µM | ACHN 88.1 µM | NCI-H226 98.9 µM | OVCAR-4 59.8 µM | M14 62.2 µM | 786-0 > 100 µM | OVCAR-5 > 100 µM | TK-10 42.8 µM | OVCAR-8 90.6 µM

O=c1[nH]c(=O)n(C2OC(CO)C(O)C2O)c2nc(-c3ccc(-c4ccccc4)cc3)cnc12 (stereo unspecified)
inactive: HOP-92 > 100 µM | UACC-62 > 100 µM | KM12 > 100 µM | HOP-62 > 100 µM | LOX IMVI > 100 µM | RXF 393 > 100 µM | SN12C > 100 µM | NCI-H23 > 100 µM | Malme-3M > 100 µM | MOLT-4 > 100 µM | HCC 2998 > 100 µM | ACHN > 100 µM | NCI-H226 > 100 µM | OVCAR-4 > 100 µM | M14 81.8 µM | 786-0 > 100 µM | OVCAR-5 > 100 µM | TK-10 > 100 µM | OVCAR-8 > 100 µM

COc1ccc(C2=Nn3c(nc4sc5c(c4c3=O)CCCC5)SC2)cc1
inactive: HOP-92 > 100 µM | UACC-62 > 100 µM | KM12 > 100 µM | HOP-62 49.8 µM | LOX IMVI > 100 µM | RXF 393 > 100 µM | SN12C > 100 µM | NCI-H23 > 100 µM | SK-MEL-28 > 100 µM | Malme-3M > 100 µM | MOLT-4 > 100 µM | HCC 2998 > 100 µM | ACHN > 100 µM | NCI-H226 > 100 µM | OVCAR-4 > 100 µM | 786-0 > 100 µM | OVCAR-5 > 100 µM | TK-10 57.8 µM | OVCAR-8 > 100 µM

CCCCc1ccc(Nc2nc(OC)c3ncn(C4CC(O)C(CO)O4)c3n2)cc1 (stereo unspecified)
inactive: HOP-92 1.97 µM | UACC-62 17 µM | KM12 16.5 µM | HOP-62 34 µM | LOX IMVI 12.1 µM | RXF 393 14.8 µM | SN12C 13.3 µM | NCI-H23 18 µM | Malme-3M 20.7 µM | MOLT-4 16.9 µM | HCC 2998 6.44 µM | ACHN 16.4 µM | NCI-H226 19.4 µM | OVCAR-4 18 µM | M14 28.9 µM | 786-0 16.4 µM | OVCAR-5 35.4 µM | TK-10 23.4 µM | OVCAR-8 16.4 µM

COc1c(-c2ccc3c(c2)OCO3)oc2cc(O)cc(O)c2c1=O
inactive: HOP-92 34.3 µM | UACC-62 46.6 µM | KM12 64.7 µM | HOP-62 18.6 µM | LOX IMVI 45.4 µM | RXF 393 14.9 µM | SN12C 51.1 µM | NCI-H23 63.4 µM | SK-MEL-28 > 100 µM | MOLT-4 21.2 µM | HCC 2998 78.9 µM | ACHN 27 µM | NCI-H226 > 100 µM | OVCAR-4 29.5 µM | M14 69.8 µM | 786-0 38.4 µM | OVCAR-5 > 100 µM | TK-10 95.1 µM | OVCAR-8 45.4 µM

COC(=O)c1ccccc1/C=C1/Cc2cccc(C)c2C1=O
inactive: HOP-92 31.8 µM | UACC-62 52.2 µM | KM12 > 100 µM | HOP-62 31 µM | LOX IMVI > 100 µM | RXF 393 41.2 µM | SN12C > 100 µM | NCI-H23 > 100 µM | SK-MEL-28 > 100 µM | Malme-3M > 100 µM | MOLT-4 > 100 µM | HCC 2998 > 100 µM | ACHN 57.5 µM | NCI-H226 > 100 µM | OVCAR-4 > 100 µM | 786-0 36.2 µM | OVCAR-5 > 100 µM | TK-10 > 100 µM | OVCAR-8 > 100 µM
